Legend:
[1] = test system: left ventricle myocardium; test: Cross-sectional delayed enhancement MRI/CMR study of gadolinium contrast uptake, voxel intensity and auto-correlation; assay type: in vivo, human
Description: In particular embodiments of the present invention, a patient may be taken to the MRI suite where he/she will be placed supine on the MRI table and ECG leads and respiratory gating bellows applied. MRI scans may be performed on, for example, a 1.5 Tesla GE CVi scanner with a phased array surface coil applied around the chest to optimize signal to noise ratio, or another MRI scanner. Images may be acquired using a fast gradient echo technique, with the repetition time (TR) and echo time (TE) based on the R-R interval of the subject. Multislice coronal, gradient echo sequences may be used to obtain scout images of the chest and locate the left ventricle. Subjects may be injected intravenously with a gadolinium contrast agent (0.2 mmole/kg Gadoteridol (Prohance, Bracco Diagnostics, Princeton, N.J.)). The time of this injection may be recorded.
However, this method may not be as well suited for a process that causes necrosis to susceptible tissue throughout the LV myocardium in a randomly distributed pattern (e.g. a global injury). To overcome this limitation, voxels, and in some embodiments all the voxels, within three short axis slice positions (apex, middle, and base) within the LV may be sampled and the intensity and x, y, and z coordinates of each voxel identified in 3-dimensional space (FIG. 6). FIG. 6 is a 3-Dimensional depiction of 3 short axis (basal, middle, and apical) planes of the left ventricle. […] During analysis, the image intensity of each voxel and the x, y, and z coordinates are recorded. […]
Correction for variations in the intensity of voxels in the images may also be identified by determining the intensity of voxels within a target region, typically, a 1 cm diameter circular ROI placed outside the heart. For each apical, middle, and basal slice, the number of pixels at a given intensity may be determined and the intensity from the ROI external to the heart subtracted from the pixels. In certain embodiments, for each slice, the mean intensity of all voxels and the peak voxel intensity in the highest 40% of the distribution may be determined (FIG. 6). […]

[2] = cited from earlier work

COc1cccc2c1C(=O)c1c(O)c3c(c(O)c1C2=O)C[C@@](O)(C(=O)CO)C[C@@H]3O[C@H]1C[C@H](N)[C@H](O)[C@H](C)O1 [doxorubicin]
mean intensity of contrast uptake in voxel histogram ([1]; doxorubicin cardiomyopathy patient, middle short axis view, 20 minutes after contrast, low in healthy patient, highest in infarct patient): intermediate
percentage of voxel intensities in aggregate histograms vs normal age matched controls ([1]; patients with cardiomyopathy due to doxorubicin, about 20 minutes after contrast): increased percentage of intensities
pattern of contrast uptake within the LV (serial auto-correlation) ([1]; patients with cardiomyopathy secondary to doxorubicin, p<0.001 vs myocardial infarction): random
patients experiencing toxicity who do so after receipt of approximately 100 mg/m^2 ([2]; approximately 100 mg/m^2, usually at T=1 month): about 85%
dose above which irreversible cardiomyopathy with serious congestive heart failure is a significant risk ([2]; patients, cumulative dose): 500-550 mg/m^2
dose that precipitates congestive heart failure ([2]; report of 1487 patients studied over a seven year period): 30-880 mg/m^2
